Entries after “also recorded” stand apart in the source; their conditions may differ.
Experiments:
Karpas-422 cells = experiment: propidium-iodide / BrdU-PI cell cycle analysis; type: cell-based, human; conditions: 48 h
Experimental: (B): Quantitation of the cell cycle data in (A), compiled from three independent analyses. The graphs plotted the average percentage of cells in each phase of the cell cycle. […] (C): FACS analysis following BrdU-PI staining of Karpas-422 and SUDHL4 cells was performed following a 48 h or 72 h treatment with ACY-957.
Cell cycle analysis of propidium-iodide stained cells was performed with fixed cells. […] (C): FACS analysis following BrdU-PI staining of Karpas-422 and SUDHL4 cells was performed following a treatment with 2 μM ACY-957, 50 nM doxorubicin or both for 48 h.
(B): Quantitation of the cell cycle analysis performed in (A). Data from three independent cell cycle analyses were compiled and average percentage cells with standard errors were shown in this panel.
Propidium-iodide Cell Cycle Analysis.
Since these DLBCL cells expressed a hyperactive form of EZH2, pharmacological inhibition of EZH2 activity was considered a therapeutic strategy. […] GSK126 was a S-adenosyl-methionine-competitive inhibitor of EZH2 methyltransferase activity, and DZNep was a S-adenosylhomocysteine hydrolase inhibitor that disrupted the components of the PRC2 complex, thereby causing reduced chromatin-associated EZH2 levels.
To test this possibility, cell cycle analysis following treatment of Karpas-422 with ACY-957, doxorubicin, or ACY-957 in combination with doxorubicin was performed.

[1] = system: Ph+ALL patient derived xenograft; experiment: Ph+ALL patient-derived xenograft mouse model; type: in vivo; conditions: for human CD45 and CD19 markers in bone marrow: 25 mg/kg ACY1035 every other day i.p., 0.25 mg/kg doxorubicin once a week i.v., vs solvent; for white cell burden: vs solvent-treated mice
Experimental: Patient-derived xenograft mice were treated with either cyclodextrin (solvent) or 25 mg/kg ACY1035 every other day for a total of 21 doses. (A) The level of human CD19, CD45, and CD34 markers were assessed in the bone marrow of these mice by FACS analysis. For each FACS marker, the bars represent (from left to right): solvent, ACY1035, doxorubicin, ACY1035+doxorubicin. (B) Solvent-treated mice have bones infiltrated with white blood cells.
Additional experiments were performed to assess the therapeutic benefits of HDAC1,2 inhibition in vivo using primary Ph+ALL patient derived xenograft mouse models. NOD/SCID mice were irradiated with a sub lethal dose of irradiation to ablate the immune system in these mice. Immune-compromised NSG mice were then injected with 2×10^6 CD34+ cells isolated from a Ph+ ALL patient. Bone and spleens were harvested from these primary xenograft mice when the leukemia burden reached the maximum 90-95% level as determined by FACS analysis for human CD19 and CD45 markers. Cells isolated from bone marrow and spleen of these primary xenograft mice were frozen in liquid nitrogen until use. A mixture of bone marrow and spleen cells from the primary xenograft mice was then injected into a cohort of sub-lethally irradiated NOD/SCID mice. Mice were divided into four treatment groups: solvent, ACY1035, doxorubicin, and ACY1035 plus doxorubicin. Xenograft mice were injected according to one of the four treatment groups after 5 days post-xenograft induction, when human CD45 marker reached around 5-10% in the peripheral blood. Mice were injected with 25 mg/kg ACY1035 every other day via i.p. and 0.25 mg/kg doxorubicin once a week via i.v., a dosing schedule that has minimal toxicity in immune compromised mice.
In this PDX model, the majority of leukemia cells homed in the bone marrow and not spleen. […] Furthermore, a decrease in human CD34+ stem/progenitor cells was observed similar to the results obtained from in vitro studies (FIG. 33A). […] The disclosed mechanistic and preclinical results provide strong evidence that HDAC1,2 inhibition or HDAC1,2 inhibition in combination with doxorubicin can provide a very potent therapeutic for Ph+PreB-ALL.

[2] = system: Karpas-422 (EZH2GOF) cells; experiment: neutral comet assay of DSB repair; type: cell-based, human
Text: (A) Measurement of repair efficiency in SUDHL5 (EZH2^WT) and Karpas-422 (EZH2^GOF) cells using neutral comet assay that detects only double-strand breaks (DSBs). In the comet, the head (H) represents intact DNA and the tail (T) represents the number of DSBs in a single cell. Tail moment is a measure of length and intensity of DNA in the tail, and the average tail moments from 100 comets are indicated within the figure for each cell/treatment combination. Doxo indicates doxorubicin; H121N indicates HDAC1,2 inhibitor. (B) DNA damage in EZH2GOF cells following knockdown of HDAC1,2 using siRNA. NT indicates non-targeting control siRNA; HDAC1,2 siRNA indicates combined treatment with HDAC1 siRNA and HDAC2 siRNA. (C) Karpas-422 cells treated with DMSO solvent or HDAC1,2 inhibitor were subjected to microlaser irradiation. H3K27me3, γH2AX, Bmi-1, and serine2-phosphorylated RNA Polymerase II (engaged in transcriptional elongation) were monitored at laser break sites (arrows) after 15 minutes of recovery time. Numbers overlaying the images indicate percentages of cells with γH2AX lines that co-localized with H3K27me3, Bmi-1, or Pol2Ser2-P lines from at least four independent experiments (p value<0.01).
Indeed, EZH2, H3K27me3, and HDAC1,2 all localize to sites of DNA breaks, which links them to DNA repair. […]

[3] = system: doxorubicin-resistant EZH2GOF DLBCL (Karpas-422/NSG); experiment: Karpas-422/NSG xenograft mouse model; type: in vivo; conditions: seventeen doses of ACY1035, five doses of doxorubicin
Experimental: (C) FACS analyses of human CD19 and IgM markers in peripheral blood of Karpas-422/NSG xenograft mice treated with solvent or doxorubicin (Doxo) or the HDAC1,2 inhibitor ACY1035 (H12IN). Seventeen doses of HDAC1,2 inhibitor and five doses of doxorubicin were administered.
The in vivo testing used a doxorubicin-resistant EZH2^GOF DLBCL (Karpas-422/NSG) mouse model and a doxorubicin-sensitive EZH2^WT DLBCL (SUDHL8/NSG) mouse model (FIG. 36). To create these models, NOD-SCID-Gamma (NSG) mice were injected intravenously (i.v.) with 1×10^6 Karpas-422 cells (chemoresistant and expressing the EZH2 gain-of-function mutant) or SUDHL8 cells (chemosensitive and expressing wild-type EZH2).

[4] = system: SupB15 Pre-B-ALL leukemia xenograft; experiment: SupB15 Pre-B-ALL leukemia xenograft mice; type: in vivo, mouse; conditions: same concentration of doxorubicin
Text: Pre-B-ALL cell lines as well as Ph+ALL primary patient samples were engrafted in NOD scid gamma (NSG) mice to examine the efficacy of Hdac1,2 inhibitor in killing cells in vivo. We injected NSG mice with SupB15 cells (1×10^6) and Ph+Pre-B-ALL primary patient cells and monitored engraftment by flow cytometry using anti-human CD45/CD19 antibodies every week for 4-5 weeks. […] To examine the extent of leukemia infiltration in spleen and bone marrow, we performed IHC analysis.

[5] = system: normal NOD-SCID-Gamma mice; experiment: hematoxylin and eosin staining of bone marrow and spleen, toxicity; conditions: 25 mg/kg ACY1035 (fifteen doses) or 0.5 mg/kg doxorubicin (six doses)
Hdac1,2 = experiment: in vitro enzyme assays, IC50 determination (FIG. 17A); type: biochemical
Experimental: (A). For IC50 determination, recombinant HDAC enzymes were treated with HDAC1,2 or HDAC3 inhibitors in in vitro HDAC assays. (B). Western blots for H3K23ac using extracts from Pre-B-ALL SupB15 cells treated with increasing dose of HDAC1,2 inhibitor (ACY1035). (C). Hdac1^FI/FI, 2^FI/FI cells were infected with Ad-Cre virus to delete HDAC1 and HDAC2 (HDAC1,2 null) or uninfected (WT). (D). Hdac3^FI/FI cells were either uninfected (WT) or infected with Ad-Cre virus to delete Hdac3. HDAC3-null cells were treated with DMSO or the HDAC1,2 selective inhibitor.
We have determined 2 μM (FIG. 17B) as the minimum dose for the ACY compounds, respectively, that when added to cells increased H3K23ac (a mark targeted by Hdac1,2 but not Hdac3).

[6] = system: SupB15 (Ph+PreB-ALL) cells; experiment: γH2AX immunofluorescence; type: cell-based, human; conditions: 2 μM, 48 hours
Experimental: (§1) SupB15 cells were treated with 2 μM ACY1035, ACY1071, ACY957, or solvent (DMSO) for 48 hours. (A) Immunofluorescence with γH2AX was performed on treated SupB15 cells. The number of γH2AX foci was counted in around 100 cells for each treatment and classified into cells with no foci, 1-5, 6-10, and greater than 10 foci. (B) SupB15 cells treated with DMSO or ACY1035 for 48 hours were tested via neutral comet assay to measure the amount of double-strand breaks (DSBs), indicated by the tail.
BCR-ABL promotes DNA repair to prevent DNA damage accumulation in Philadelphia chromosome-positive (Ph+) leukemia cells. To examine the effect of various HDAC1,2-selective inhibitors on DNA repair and DNA damage response in Pre-B-ALL cells that express BCR-ABL, SupB15 (Ph+PreB-ALL) cells were treated with 2 μM ACY1035 or 2 μM ACY1071 or 2 μM ACY957 for 48 hours.

SupB15 cells [7] = experiment: neutral comet assay; type: cell-based, human; conditions: 48 hours
Experimental: as §1
We next asked whether double-strand break repair is impaired in SupB15 cells. We used neutral comet assays to measure the efficiency of double-strand break repair following treatment with ACY1035 for 48 hours. The neutral comet assay specifically measures double-strand breaks and not single-strand breaks. In this assay, control and HDAC1,2 inhibitor treated SupB15 cells were embedded in low melting agarose and subjected to electrophoresis to separate damaged DNA from intact DNA. Damaged DNA runs faster and therefore forms a tail, and the intact DNA is present in the head (FIG. 24B). DNA was visualized with sybrgreen staining.

SupB15 cells [8] = experiment: BrdU ChIP assay, γH2AX on nascent chromatin; type: cell-based, human
Text: The majority of chromatin-bound proteins that decreased following ACY1035 plus doxorubicin treatment compared to ACY1035 treatment alone belong to DNA replication and DNA replication-associated repair processes (FIGS. 29A and 29B).

[9] = system: non-transformed, mouse bone marrow Pro-B derived Baf3 cells or cord blood stem cells; experiment: cell death in non-transformed cells; type: cell-based; conditions: 2 μM, within 72 hr
Text: Therefore, transformed lymphoma cells are more sensitive to HDAC1,2 inhibition when compared to the untransformed normal B-cells. HDAC1,2 inhibitor causes replication fork collapse in S-phase to trigger DNA damage response, and transformed cancer cells have increased DNA replication when compared to normal B cells. […] In addition to this property, EZH2^GOF DLBCL cells also have increased DNA repair compared to EZH2^WT DLBCL cells (FIG. 34A), which can also be targeted by HDAC1,2 inhibitor as it impairs the HDAC1,2 regulated DNA repair processes used by EZH2^GOF DLBCL cells for their survival.

[10] = system: normal NOD-SCID-Gamma mice; conditions: mouse

Row | Compound | increase in the percentage of cells in G2/M phase (Karpas-422 cells; 50 nM doxorubicin) [fold] | cell death / sub-G1 population (Karpas-422 cells; 2 μM ACY-957, 50 nM doxorubicin or both) | human CD45 and CD19 markers in bone marrow [1] | white cell burden [1] | DSBs, comet tail moment [2] | human CD19 and IgM population in peripheral blood [3] | leukemia burden [4] | morphology of bone marrow and spleen cells [5] | inhibition of Hdac1,2 activities compared to Hdac3 (IC50 values) (Hdac1,2) | DNA damage, quantitation of γH2AX foci [6] | damaged DNA (comet tail) (SupB15 cells [7]) | γH2AX on the nascent chromatin (SupB15 cells [8]) | cell death [9] | toxic effects in vivo [10]
1 | COc1cccc2c1C(=O)c1c(O)c3c(c(O)c1C2=O)C[C@@](O)(C(=O)CO)C[C@@H]3O[C@H]1C[C@H](N)[C@H](O)[C@H](C)O1 [doxorubicin, reference compound] | 1.5 to 2 | modest increase in cell death | significant reduction in the human CD45 and CD19 markers | decrease in the white cell burden | far less sensitive to doxorubicin | no significant change in these markers | significantly decreased leukemia burden | No changes in the morphology of spleen or bone marrow cells; also recorded: no abnormalities or changes in the cell morphology in bone marrow or spleens | – | – | – | – | – | –
2 | Nc1ccc(-c2cccs2)cc1NC(=O)c1ccc2c(c1)cc(C1CC1)n2CCN1CCOCC1 [ACY-1035, N-(2-amino-5-(thiophen-2-yl)phenyl)-2-cyclopropyl-1-(2-morpholinoethyl)-1H-indole-5-carboxamide] | – | – | significant reduction in the human CD45 and CD19 markers; also recorded: greater decrease in the human leukemia markers when compared to doxorubicin-treated mice | decrease in the white cell burden | – | significant decrease in human CD19 and IgM population in peripheral blood | – | No changes in the morphology of spleen or bone marrow cells; also recorded: no abnormalities or changes in the cell morphology in bone marrow or spleens | very selectively | statistically significant increase in DNA damage | increase in damaged DNA | increase in γH2AX on the nascent chromatin | did not cause any cell death | does not have toxic effects in vivo

From patent US11154551B2, “HDAC1,2 inhibitors and methods of using the same” (UNIVERSITY OF UTAH RESEARCH FOUNDATION, priority 2014, dated 2021)
